In ChEMBL document CHEMBL2040810, “In search for new chemical entities as adenosine receptor ligands: development of agents based on benzo-γ-pyrone skeleton” (Eur J Med Chem, 2012):
pKi: −log10 of the molar value. The source made the active and inactive calls. The rule behind the calls is not given here.

Assays:
[1] = molecular target: T1, Adenosine receptor A1 (Homo sapiens) (UniProt P30542); assay: Displacement of [3H]DPCPX from human adenosine A1 receptor expressed in CHO cells at 10 uM after 60 mins by liquid scintillation counting; format: cell-based
T1 sequence (whole entry): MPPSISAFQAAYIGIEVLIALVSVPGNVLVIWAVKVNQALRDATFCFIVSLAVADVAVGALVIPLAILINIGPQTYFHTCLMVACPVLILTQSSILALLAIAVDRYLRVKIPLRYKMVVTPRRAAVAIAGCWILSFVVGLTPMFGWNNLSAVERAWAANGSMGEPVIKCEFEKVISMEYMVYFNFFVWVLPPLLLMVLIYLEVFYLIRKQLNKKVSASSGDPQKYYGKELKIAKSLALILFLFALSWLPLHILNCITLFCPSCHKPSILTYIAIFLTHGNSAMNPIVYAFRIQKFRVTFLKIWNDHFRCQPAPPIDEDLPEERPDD

[2] = molecular target: Adenosine receptor A2a (Homo sapiens) (UniProt P29274); assay: Displacement of [3H][…] from human adenosine A2A receptor expressed in HeLa cells at 10 uM after 30 mins by liquid scintillation counting; format: cell-based
Chain of Adenosine receptor A2a (Homo sapiens) (P29274 whole entry): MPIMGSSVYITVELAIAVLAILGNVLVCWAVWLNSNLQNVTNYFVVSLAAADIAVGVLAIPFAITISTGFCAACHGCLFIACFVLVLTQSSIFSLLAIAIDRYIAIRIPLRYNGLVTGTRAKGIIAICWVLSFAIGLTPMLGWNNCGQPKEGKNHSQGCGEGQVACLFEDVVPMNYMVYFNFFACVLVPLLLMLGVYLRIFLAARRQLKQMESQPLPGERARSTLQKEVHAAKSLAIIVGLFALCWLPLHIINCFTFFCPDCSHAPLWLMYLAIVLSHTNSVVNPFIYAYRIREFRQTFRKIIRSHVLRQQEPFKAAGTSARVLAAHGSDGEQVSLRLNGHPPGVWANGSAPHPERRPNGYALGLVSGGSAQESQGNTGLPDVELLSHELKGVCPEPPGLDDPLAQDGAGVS

[3] = molecular target: T2, Adenosine receptor A2b (Homo sapiens) (UniProt P29275); assay: Displacement of [3H]DPCPX from human adenosine A2B receptor expressed in HEK293 cells at 10 uM after 30 mins by liquid scintillation counting; format: cell-based
T2 sequence (whole entry): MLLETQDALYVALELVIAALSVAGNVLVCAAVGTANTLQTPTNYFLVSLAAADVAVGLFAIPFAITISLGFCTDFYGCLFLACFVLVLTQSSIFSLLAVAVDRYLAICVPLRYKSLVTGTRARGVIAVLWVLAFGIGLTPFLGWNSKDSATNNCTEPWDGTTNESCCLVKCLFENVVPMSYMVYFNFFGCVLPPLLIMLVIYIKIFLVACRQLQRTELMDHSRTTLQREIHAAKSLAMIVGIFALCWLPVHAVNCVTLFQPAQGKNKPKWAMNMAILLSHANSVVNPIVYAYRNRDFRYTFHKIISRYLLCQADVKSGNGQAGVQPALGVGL

Adenosine receptor A2b = molecular target: T3, Adenosine receptor A2b (Homo sapiens, UniProt P29275); assay: Displacement of [3H]DPCPX from human adenosine A2B receptor expressed in HEK293 cells after 30 mins by liquid scintillation counting; format: cell-based
T3 sequence (P29275 whole entry): T2 sequence (whole entry)

Homo sapiens = species on record: Homo sapiens; assay: Selectivity ratio for human A2B adenosine receptor over human A3 adenosine receptor
[4] = molecular target: T4, Adenosine receptor A3 (Homo sapiens) (UniProt P0DMS8); assay: Displacement of [3H]NECA from human adenosine A3 receptor expressed in HeLa cells at 10 uM after 30 mins by liquid scintillation counting; format: cell-based
T4 sequence (whole entry): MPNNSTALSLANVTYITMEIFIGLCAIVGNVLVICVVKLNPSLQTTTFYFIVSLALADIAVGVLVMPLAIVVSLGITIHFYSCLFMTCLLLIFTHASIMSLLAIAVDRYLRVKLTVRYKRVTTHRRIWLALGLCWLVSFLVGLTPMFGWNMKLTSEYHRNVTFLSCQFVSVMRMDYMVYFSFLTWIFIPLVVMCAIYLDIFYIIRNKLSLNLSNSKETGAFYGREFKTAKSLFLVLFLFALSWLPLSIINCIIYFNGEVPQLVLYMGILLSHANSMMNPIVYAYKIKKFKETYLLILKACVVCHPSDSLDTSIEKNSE

Activity [1] | Activity [2] | Activity [3] | pKi (Adenosine receptor A2b) | Selectivity ratio (Homo sapiens) | Activity [4] | SMILES
3% | 3% | > 50% | 5.07 | 2 |  | O=C(Nc1ccccc1)c1coc2ccccc2c1=O
 |  | > 50% | 5.19 |  |  | COc1ccc(NC(=O)c2coc3ccccc3c2=O)cc1OC
Active | Active | Active |  |  | Active | O=C(Nc1ccccc1)c1cc(=O)c2ccccc2o1
Active | Active | Active |  |  | Active | COc1ccc(NC(=O)c2cc(=O)c3ccccc3o2)cc1O
Active | Active | Active |  |  | Active | COc1ccc(NC(=O)c2cc(=O)c3ccccc3o2)cc1OC
Active | Active | Active |  |  | Active | O=C(Nc1ccc(O)cc1)c1cc(=O)c2ccccc2o1
 |  | > 50% | 5.54 |  |  | O=C(Nc1ccc(O)cc1)c1coc2ccccc2c1=O
Active | Active | Active |  |  | Active | O=C(Nc1ccc(O)c(O)c1)c1cc(=O)c2ccccc2o1
 |  | > 50% | 5.87 |  |  | O=C(Nc1ccc(O)c(O)c1)c1coc2ccccc2c1=O
 |  | > 50% | 5.24 |  |  | COc1ccc(NC(=O)c2coc3ccccc3c2=O)cc1O
Active |  |  |  |  | Active | O=C(O)c1cc(=O)c2ccccc2o1
